The test system of test [1] is Leishmania donovani. Put plainly: Antileishmanial activity against axenic amastigotes of Leishmania donovani MHOM/SD/1962/1S-Cl2d at 30 uM after 24 hrs by alamar Blue viability assay. In kind it is functional. On the technique in general: The colour change of resazurin is a common sign of viable cells or microbes.
Test [2] relates to Leishmania donovani. Put plainly: Antileishmanial activity against axenic amastigotes of Leishmania donovani MHOM/SD/1962/1S-Cl2d after 24 hrs by alamar Blue viability assay. Type of test: functional, organism-based.
The subject of test [3] is Leishmania donovani. Put plainly: Inhibition of Leishmania donovani CRK3/CYC6 activity expressed in Escherichia coli using 15 uM ATP at 30 uM.
Test [4] in a line: Inhibition of Leishmania donovani CRK3/CYC6 activity expressed in Escherichia coli using 15 uM ATP.

The text below walks through data of ChEMBL document CHEMBL1800011, “Anti-leishmanial activity of disubstituted purines and related pyrazolo[4,3-d]pyrimidines” (Bioorg Med Chem Lett, 2011).

The structures appear in SMILES notation.

Usually inhibition stands for the drop in the measured response relative to a control, in per cent. A word on the EC50: it is the concentration needed to bring the measured effect to its halfway point. Lower therefore signals greater potency. As a reminder, the IC50 is the concentration needed to halve the response being measured. A low value points to greater potency. With `CC(C)c1n[nH]c2c(NCc3cccc(O)c3)ncnc12`, the inhibition at 30 µM with Leishmania donovani [1] came out at 25.4%. This molecule registered an EC50 in the test on Leishmania donovani [2] greater than 100 µM. The inhibition in the test on Leishmania donovani [3] was 35.8%. For the same molecule, in test [4], the IC50 came to 83.2 µM.

For the molecule `CC(C)c1n[nH]c2c(NC3CCCCC3N)ncnc12` (stereo unspecified), the inhibition at 30 µM with Leishmania donovani [1] is 15.8%. This molecule also had an EC50 with Leishmania donovani [2] greater than 100 µM. Further, the inhibition in the test on Leishmania donovani [3] is 2.4%. In addition, the IC50 in test [4] is greater than 100 µM.

On to `CC(C)n1cnc2c(NCc3ccccc3N)ncnc21`, for which, in the test with Leishmania donovani [1], the inhibition at 30 µM was found to be 6.6%. In the test with Leishmania donovani [3], the inhibition came out at 11%. For the same molecule, in test [4], the IC50 was greater than 100 µM.

On to `COc1ccc(CNc2ncnc3c(C(C)C)n[nH]c23)cc1O`, for which the inhibition at 30 µM with Leishmania donovani [1] turned out to be 34.3%. Further, the concentration giving a half-maximal response (EC50) in the test on Leishmania donovani [2] is 94 µM. The inhibition in the test with Leishmania donovani [3] was 46.8%. The molecule further displayed a 50% inhibitory concentration (IC50) in test [4] of 28.2 µM.

On to `CC(C)n1cnc2c(NC34CC5CC(CC(C5)C3)C4)ncnc21`, for which, in the test with Leishmania donovani [1], the inhibition at 30 µM came to 72%. Besides, the inhibition in the test with Leishmania donovani [3] was 66.1%. The same molecule registered a half-inhibitory concentration (IC50) in test [4] of 12.2 µM.

`CC(C)=CCNc1ncnc2c(C(C)C)n[nH]c12`: the inhibition at 30 µM with Leishmania donovani [1] turned out to be 45.5%. The EC50 in the test on Leishmania donovani [2] worked out at 85 µM. Further, the inhibition in the test with Leishmania donovani [3] is 32.5%. The same molecule gave an IC50 in test [4] of 57.2 µM.

Take `CC(C)c1n[nH]c2c(NCc3ccccc3N)ncnc12`: the inhibition at 30 µM in the test on Leishmania donovani [1] is 41.3%. Further, the half-maximal effective concentration (EC50) in the test on Leishmania donovani [2] was greater than 100 µM. Further, the inhibition in the test on Leishmania donovani [3] amounted to 42.3%. This molecule also came in with a 50% inhibitory concentration (IC50) in test [4] of 58.6 µM.

On to `CC(C)c1n[nH]c2c(Nc3ccc(F)cc3)ncnc12`, for which the inhibition at 30 µM in the test with Leishmania donovani [1] was found to be 75.8%. The EC50 in the test on Leishmania donovani [2] was 11.6 µM. Besides, the inhibition with Leishmania donovani [3] came out at 78.8%. This molecule also returned an IC50 in test [4] of 6.8 µM.

`CC(C)c1n[nH]c2c(Nc3cccc(F)c3)ncnc12`: the inhibition at 30 µM in the test on Leishmania donovani [1] came to 66.6%. The molecule further came in with an EC50 in the test with Leishmania donovani [2] of 23.2 µM. Also, the inhibition in the test with Leishmania donovani [3] came out at 70.4%. Inhibition in test [4] was half-maximal at 14.6 µM (IC50).

For the molecule `CCCCCNc1ncnc2c(C(C)C)n[nH]c12`, the inhibition at 30 µM in the test on Leishmania donovani [1] is 27.3%. Also, the 50% effective concentration (EC50) in the test on Leishmania donovani [2] was determined as 54.7 µM. For the same molecule, in the test on Leishmania donovani [3], the inhibition is 46.5%. In test [4], the IC50 was greater than 100 µM.

Regarding `CC(C)c1n[nH]c2c(NCc3ccccc3)ncnc12`, the inhibition at 30 µM in the test with Leishmania donovani [1] came out at 29.6%. This molecule also came in with an EC50 in the test on Leishmania donovani [2] of 68.6 µM. Besides, the inhibition in the test with Leishmania donovani [3] amounted to 24.5%. Moreover, in test [4], the IC50 was 54.2 µM.

As to `CC(C)n1cnc2c(NCc3ccccc3)ncnc21`, the inhibition at 30 µM in the test with Leishmania donovani [1] amounted to 19.9%. In addition, the inhibition with Leishmania donovani [3] turned out to be 18.5%. The IC50 in test [4] is greater than 100 µM.

For the molecule `CC(C)c1n[nH]c2c(Nc3ccccc3Br)ncnc12`, in the test with Leishmania donovani [1], the inhibition at 30 µM came out at 40.7%. The molecule also had a 50% effective concentration (EC50) in the test on Leishmania donovani [2] of 18.7 µM. Also, in the test on Leishmania donovani [3], the inhibition was 35.6%. In test [4], this molecule had a concentration for half-maximal inhibition (IC50) of 16.1 µM.

As to `CC(C)n1cnc2c(Nc3ccc(F)cc3)ncnc21`, the inhibition at 30 µM with Leishmania donovani [1] was determined as 21.5%. The inhibition in the test on Leishmania donovani [3] turned out to be 53.3%. For the same molecule, in test [4], the midpoint of inhibition, the IC50, lay at 22.8 µM.

On to `CC(C)c1n[nH]c2c(Nc3cccc(Cl)c3)ncnc12`, for which the inhibition at 30 µM with Leishmania donovani [1] came to 73.3%. In the test on Leishmania donovani [2], this molecule had an EC50 of 12.4 µM. The inhibition in the test on Leishmania donovani [3] amounted to 81.3%. This molecule registered a half-maximal inhibitory concentration (IC50) in test [4] of 9.86 µM.

For `CC(C)n1cnc2c(NCc3ccco3)ncnc21`, the inhibition at 30 µM in the test with Leishmania donovani [1] worked out at 14.5%. In addition, in the test with Leishmania donovani [3], the inhibition came to 3.5%. Further, the IC50 in test [4] is greater than 100 µM.

With `COc1ccc(CNc2ncnc3c2ncn3C(C)C)cc1O`, in the test with Leishmania donovani [1], the inhibition at 30 µM was determined as 8.8%. Moreover, the inhibition with Leishmania donovani [3] was 11.2%. In test [4], this molecule returned a concentration for half-maximal inhibition (IC50) greater than 100 µM.

In the case of `COc1ccc(CNc2ncnc3c2ncn3C(C)C)cc1`, the inhibition at 30 µM in the test on Leishmania donovani [1] is 15.1%. For the same molecule, the inhibition in the test with Leishmania donovani [3] was -6.9%. In test [4], the IC50 was greater than 100 µM.

As for `CC(C)n1cnc2c(NCc3cccc(O)c3)ncnc21`, in the test with Leishmania donovani [1], the inhibition at 30 µM was found to be 6.5%. In addition, the inhibition in the test with Leishmania donovani [3] was 8.8%. This molecule came in with an IC50 in test [4] greater than 100 µM.

Turning to `CC(C)c1n[nH]c2c(NC34CC5CC(CC(C5)C3)C4)ncnc12`, the inhibition at 30 µM in the test on Leishmania donovani [1] was 73.2%. In the test with Leishmania donovani [2], this molecule came in with an EC50 of 1.22 µM. Further, the inhibition in the test on Leishmania donovani [3] was 93.8%. This molecule registered a half-inhibitory concentration (IC50) in test [4] of 1.82 µM.

For `CC(C)n1cnc2c(NC3CCC(N)CC3)ncnc21` (stereo unspecified), the inhibition at 30 µM in the test with Leishmania donovani [1] came out at 1%. For the same molecule, the inhibition with Leishmania donovani [3] stood at 26.4%. In test [4], this molecule yielded an IC50 greater than 100 µM.

Regarding `CC(C)n1cnc2c(Nc3cccc(F)c3)ncnc21`, the inhibition at 30 µM in the test with Leishmania donovani [1] came to 16.5%. In the test on Leishmania donovani [3], the inhibition turned out to be 30.4%. In test [4], this molecule had a half-inhibitory concentration (IC50) of 49.9 µM.

For `CC(C)n1cnc2c(NC3CCCCC3N)ncnc21` (stereo unspecified), the inhibition at 30 µM in the test on Leishmania donovani [1] was determined as 4.5%. For the same molecule, in the test with Leishmania donovani [3], the inhibition was -5.4%. The concentration for half-maximal inhibition (IC50) in test [4] was greater than 100 µM.

As to `CC(C)n1cnc2c(NCc3ccccc3O)ncnc21`, the inhibition at 30 µM in the test with Leishmania donovani [1] was 11.7%. In the test on Leishmania donovani [3], the inhibition is -2.8%. Further, in test [4], the half-maximal inhibitory concentration (IC50) is greater than 100 µM.

Take `COc1ccc(CNc2ncnc3c(C(C)C)n[nH]c23)cc1`: in the test with Leishmania donovani [1], the inhibition at 30 µM is 31.5%. This molecule had an EC50 in the test on Leishmania donovani [2] of 83 µM. The inhibition in the test on Leishmania donovani [3] amounted to 36%. Moreover, in test [4], the concentration for half-maximal inhibition (IC50) worked out at 75.5 µM.

Consider `CC(C)c1n[nH]c2c(NCc3ccccc3O)ncnc12`, for which the inhibition at 30 µM with Leishmania donovani [1] was 87.4%. In the test on Leishmania donovani [2], this molecule came in with a concentration giving a half-maximal response (EC50) of 35.7 µM. Moreover, the inhibition in the test on Leishmania donovani [3] was 68%. In test [4], this molecule displayed a 50% inhibitory concentration (IC50) of 11.9 µM.

As to `CC(C)c1n[nH]c2c(NC3CCC(N)CC3)ncnc12` (stereo unspecified), the inhibition at 30 µM with Leishmania donovani [1] is 3.3%. Also, the 50% effective concentration (EC50) with Leishmania donovani [2] was greater than 100 µM. The inhibition in the test on Leishmania donovani [3] stood at 35%. Further, in test [4], the IC50 was greater than 100 µM.

In the case of `CC(C)n1cnc2c(Nc3ccccc3Br)ncnc21`, in the test with Leishmania donovani [1], the inhibition at 30 µM was determined as 26.2%. Further, the inhibition in the test with Leishmania donovani [3] came out at 1.8%. Moreover, the IC50 in test [4] was greater than 100 µM.

Consider `COc1cc(CNc2ncnc3c(C(C)C)n[nH]c23)ccc1O`, for which, in the test with Leishmania donovani [1], the inhibition at 30 µM was 10.4%. The molecule also came in with a 50% effective concentration (EC50) in the test on Leishmania donovani [2] greater than 100 µM. Also, in the test with Leishmania donovani [3], the inhibition was determined as 41%. In test [4], this molecule showed a concentration for half-maximal inhibition (IC50) of 100 µM.

For `COc1cc(CNc2ncnc3c2ncn3C(C)C)ccc1O`, in the test on Leishmania donovani [1], the inhibition at 30 µM amounted to 9.5%. In addition, in the test on Leishmania donovani [3], the inhibition came to 11.9%. Further, the IC50 in test [4] was greater than 100 µM.

Take `COc1ccc(CNc2ncnc3c(C(C)C)n[nH]c23)cc1OC`: the inhibition at 30 µM with Leishmania donovani [1] worked out at 8.4%. The molecule further displayed an EC50 with Leishmania donovani [2] greater than 100 µM. For the same molecule, the inhibition in the test with Leishmania donovani [3] came to 19.9%. Besides, in test [4], the IC50 was greater than 100 µM.

`CC(C)c1n[nH]c2c(NCc3ccco3)ncnc12`: the inhibition at 30 µM in the test with Leishmania donovani [1] was 16.6%. In addition, in the test on Leishmania donovani [2], the EC50 is greater than 100 µM. For the same molecule, the inhibition with Leishmania donovani [3] was found to be 28.5%. Also, in test [4], the IC50 was greater than 100 µM.

Take `CC(C)=CCNc1ncnc2c1ncn2C(C)C`: the inhibition at 30 µM in the test on Leishmania donovani [1] stood at 0.04%. In the test on Leishmania donovani [3], the inhibition worked out at 3.2%. The molecule further returned a 50% inhibitory concentration (IC50) in test [4] greater than 100 µM.

Take `CC(C)n1cnc2c(Nc3cccc(Cl)c3)ncnc21`: the inhibition at 30 µM in the test with Leishmania donovani [1] turned out to be 35.1%. In the test on Leishmania donovani [3], the inhibition was 22.3%. Moreover, the IC50 in test [4] is greater than 100 µM.

For the molecule `CCCCCNc1ncnc2c1ncn2C(C)C`, the inhibition at 30 µM with Leishmania donovani [1] amounted to 22.6%. The inhibition in the test on Leishmania donovani [3] was found to be 14.8%. In test [4], this molecule gave an IC50 greater than 100 µM.

On to `COc1ccc(CNc2ncnc3c2ncn3C(C)C)cc1OC`, for which the inhibition at 30 µM with Leishmania donovani [1] came out at 1.9%. For the same molecule, in the test with Leishmania donovani [3], the inhibition was -2.3%. In addition, the IC50 in test [4] was greater than 100 µM.
